Where only a bound is given, the exact number is not on record here.

From patent US5530097A, “Human cancer inhibitory peptide amides” (Arizona Board of Regents acting on behalf of Arizona State …, priority 1994, dated 1996) come the findings set out here.

What all share (format): cell-based
The subject of one assay is A498. Nature of the assay: NCI in vitro mini panel, human cancer cell line growth inhibition. The settings on record: Renal A498, 48 hrs. As for the experimental part:
(§1) ED50 (P388) and GI50 (HTCL) identify the drug dose which reduces the percent tumor/cell growth to 50%. There is no mathematical difference between ED50 and GI50, both of which are calculated using the same formula. The only difference is historical usage.
(§2) TGI, means "Total Growth Inhibition", and identifies the drug dose needed to yield zero percent growth, i.e. there are just as many cells at the end of the experiment as were present at the beginning. Whether just as many cells were killed as were produced (steady state), or no growth occurred (total inhibition) cannot be distinguished.
(§3) LC50, means "Lethal Concentration 50%", and identifies the drug concentration which reduces to one-half of the cells originally present at the beginning of the experiment.
(§4) Each drug is tested at five (5) doses: 100--10-1-0.1--0.01 μg/mL. Percent Growths are calculated for each dose. The two (or three) doses with growth values above, below, (or near to) 50% growth are used to calculate the ED50 /GI50 values using a linear regression computation. If no dose yields a growth value under 50%, the results are expressed as: ED50 >(highest dose). If no dose yields growth higher than 50% growth, then ED50 <(lowest dose). Similar calculations are performed for the TGI at 0% growth, and at -50% growth for the LC50.
(§5) At the start of each experiment, cells from the in vitro cell cultures are inoculated into the appropriate tubes or microtiter plates. One set of control tubes/plates is immediately counted to determine the number of cells at the start of the experiment. This is the "baseline count", or "Tzero reading". At the end of the experiment (48 hrs later), a second set of control tubes/plates is analyzed to determine the "Control Growth" value. The growth (or death) of cells relative to the initial quantity of cells is used to define the "Percent of Growth."
(§6) Similarly, the compounds disclosed herein have also been tested against an NCI in vitro mini panel. For each of six cell lines GI50, TGI, and LC50 amounts were calculated for each compound. Each compound was also tested against the PS-388 cell line and for this test an ED50 was calculated.
(§7) The protocols followed, for the NCI minipanel are, except for the number of cell lines, those established by M. R. Boyd Ph.D., and well known to those of ordinary skill in the art. The procedure followed for the test against PS-388 Leukemia is the same that was followed in the superseded NCI P-388 screening test, which is also well known to those having ordinary skill in the art.

The next assay relates to KM20L2. The description is as above. The settings on record: Colon KM20L2, 48 hrs. As for the experimental part: as §1, §2, §3, §4, §5, §6, §7
In the next assay the test system is NCI-H460. The description is as above. The settings on record: Lung-NSC NCI-H460, 48 hrs. As to the method:
as §1, §2, §3, §4, §5, §6, §7

Another assay deals with OVCAR-3. Described as above. The settings on record: Ovarian OVCAR-3, 48 hrs. As for the experimental part:
as §1, §2, §3, §4, §5, §6, §7

The subject of a further assay is SF-295. The assay is described as above. The settings on record: CNS SF-295, 48 hrs. As to the method: as §1, §2, §3, §4, §5, §6, §7
The test system of a further assay is SK-MEL-5. Described as above. The settings on record: Melanoma SK-MEL-5, 48 hrs. As for the experimental part:
as §1, §2, §3, §4, §5, §6, §7

The subject of the next assay is PS-388. Nature of the assay: PS-388 mouse leukemia cell line test. The settings on record: Mouse Leukemia PS-388. As to the method:
as §1, §4, §5, §6, §7

Regarding “L-Dolavalyl-L-Leucyl-N-methyl-(3R,4S,5S)-Dolaisoleuinyl-(2R,3R,4S)-Dolaproinyl-L-Methionine N-2-chlorophenylamide [8a]”, the GI-50 with A498 worked out at 0.0037 µg/mL; in the assay on KM20L2 it was 0.0018 µg/mL; in the assay with NCI-H460, 0.0028 µg/mL; in the assay with OVCAR-3, 0.00047 µg/mL; in the assay with SF-295, 0.0034 µg/mL; in the assay on SK-MEL-5 it was 0.042 µg/mL. The LC-50 with A498, in the assay on KM20L2, with NCI-H460, in the assay with OVCAR-3, in the assay on SF-295 and in the assay with SK-MEL-5 was above 0.01 µg/mL throughout. Moreover, the TGI in the assay on A498 is above 0.01 µg/mL; with KM20L2, above 0.01 µg/mL; in the assay with NCI-H460, 0.0079 µg/mL; with OVCAR-3, 0.005 µg/mL; in the assay on SF-295, above 0.01 µg/mL; in the assay on SK-MEL-5 it was above 0.01 µg/mL. This substance had an ED-50 in the assay on PS-388 of 0.00256 µg/mL.

For “L-Dolavalyl-L-Leucyl-N-methyl-(3R,4S,5S)-Dolaisoleuinyl-(2R,3R,4S)-Dolaproinyl-L-Phenylalanine N-4-chlorophenylamide [8d]”, the GI-50 in the assay with A498 was 0.00018 µg/mL; in the assay on KM20L2, 0.000015 µg/mL; in the assay with NCI-H460 it was 0.00032 µg/mL; with OVCAR-3, 0.0000085 µg/mL; in the assay on SF-295, 0.00034 µg/mL; with SK-MEL-5 it was 0.0000051 µg/mL. Moreover, the LC-50 in the assay on A498, in the assay on KM20L2, in the assay on NCI-H460, with OVCAR-3, in the assay on SF-295 and with SK-MEL-5 was above 0.01 µg/mL in each case. Further, the TGI in the assay with A498 is 0.0038 µg/mL; in the assay with KM20L2 it was 0.0012 µg/mL; with NCI-H460, 0.0011 µg/mL; in the assay with OVCAR-3, 0.00023 µg/mL; with SF-295, above 0.01 µg/mL; in the assay on SK-MEL-5, above 0.01 µg/mL. Besides, the ED-50 in the assay with PS-388 is 0.0000025 µg/mL.

For “L-Dolavalyl-L-Leucyl-N-methyl-(3R,4S,5S)-Dolaisoleuinyl-(2R,3R,4S)-Dolaproinyl-L-Proline N-2-benzothiazolamide [8f]”, the GI-50 in the assay with A498 was above 0.01 µg/mL; in the assay on KM20L2, 0.0074 µg/mL; in the assay on NCI-H460, above 0.01 µg/mL; in the assay on OVCAR-3, 0.0033 µg/mL; in the assay with SF-295, above 0.01 µg/mL; with SK-MEL-5 it was 0.0043 µg/mL. Moreover, the LC-50 with A498, in the assay with KM20L2, with NCI-H460, with OVCAR-3, in the assay on SF-295 and in the assay on SK-MEL-5 was above 0.01 µg/mL in each case. The concentration for total growth inhibition (TGI) in the assay on A498, in the assay on KM20L2, with NCI-H460, in the assay on OVCAR-3, in the assay on SF-295 and with SK-MEL-5 was above 0.01 µg/mL each time. This substance also returned an ED-50 in the assay with PS-388 of 0.00405 µg/mL.

Turning to “L-Dolavalyl-L-Leucyl-N-methyl-(3R,4S,5S)-Dolaisoleuinyl-(2R,3R,4S)-Dolaproinyl-L-Methionine N-3-quinolinamide [8g]”, the GI-50 in the assay on A498 is 0.00026 µg/mL; in the assay on KM20L2 it was 0.000019 µg/mL; in the assay on NCI-H460, 0.00032 µg/mL; with OVCAR-3, below 0.000006 µg/mL; in the assay with SF-295, 0.00041 µg/mL; in the assay on SK-MEL-5, below 0.000006 µg/mL. For the same substance, the LC-50 with A498, in the assay with KM20L2, in the assay with NCI-H460, in the assay with OVCAR-3, in the assay on SF-295 and in the assay on SK-MEL-5 was above 0.01 µg/mL each time. The TGI in the assay with A498 was above 0.01 µg/mL; in the assay with KM20L2, 0.0012 µg/mL; in the assay with NCI-H460, 0.0012 µg/mL; in the assay with OVCAR-3, 0.001 µg/mL; with SF-295, above 0.01 µg/mL; in the assay on SK-MEL-5, above 0.01 µg/mL. In the assay with PS-388, this substance had an ED-50 of 0.000271 µg/mL.

Take “L-Dolavalyl-L-Leucyl-N-methyl-(3R,4S,5S)-Dolaisoleuinyl-(2R,3R,4S)-Dolaproinyl-N-2(3-chlorophenyl) ethylamide [10c]”: the GI-50 in the assay with A498 was 0.0038 µg/mL; in the assay on KM20L2, 0.0020 µg/mL; in the assay on NCI-H460, 0.0029 µg/mL; with OVCAR-3, 0.0019 µg/mL; in the assay on SF-295, 0.0035 µg/mL; in the assay with SK-MEL-5, 0.0025 µg/mL. The LC-50 in the assay with A498, in the assay with KM20L2, in the assay on NCI-H460, in the assay on OVCAR-3, in the assay on SF-295 and with SK-MEL-5 was above 0.01 µg/mL each time. Besides, the TGI was above 0.01 µg/mL with A498; above 0.01 µg/mL in the assay on KM20L2; 0.0084 µg/mL with NCI-H460; above 0.01 µg/mL with OVCAR-3; above 0.01 µg/mL in the assay with SF-295; above 0.01 µg/mL in the assay with SK-MEL-5. This substance gave an ED-50 in the assay with PS-388 of 0.00314 µg/mL.

On to “L-Dolavalyl-L-Leucyl-N-methyl-(3R,4S,5S)-Dolaisoleuinyl-(2R,3R,4S)-Dolaproinyl-Dolaphenine [10a]”, for which the GI-50 in the assay on A498 was 0.00026 µg/mL; with KM20L2, 0.000034 µg/mL; in the assay on NCI-H460 it was 0.00022 µg/mL; with OVCAR-3, 0.000031 µg/mL; in the assay with SF-295 it was 0.00027 µg/mL; in the assay with SK-MEL-5, 0.000058 µg/mL. For the same substance, the LC-50 with A498, with KM20L2, in the assay on NCI-H460, in the assay with OVCAR-3, in the assay on SF-295 and with SK-MEL-5 was above 0.01 µg/mL throughout. For the same substance, the TGI with A498 was 0.0063 µg/mL; with KM20L2 it was 0.001 µg/mL; with NCI-H460, 0.0007 µg/mL; in the assay with OVCAR-3 it was 0.00051 µg/mL; in the assay on SF-295 it was above 0.01 µg/mL; in the assay with SK-MEL-5 it was above 0.01 µg/mL. In addition, the ED-50 in the assay with PS-388 was determined as 0.0000312 µg/mL.

For “L-Dolavalyl-L-Leucyl-N-methyl-(3R,4S,5S)-Dolaisoleuinyl-(2R,3R,4S)-Dolaproinyl-L-Phenylalanine N-3-chlorophenylamide [8c]”, the GI-50 in the assay on A498 was found to be 0.00042 µg/mL; with KM20L2 it was 0.00021 µg/mL; with NCI-H460, 0.0017 µg/mL; in the assay with OVCAR-3 it was 0.000064 µg/mL; with SF-295 it was 0.00088 µg/mL; in the assay with SK-MEL-5, 0.000042 µg/mL. The LC-50 in the assay with A498, in the assay on KM20L2, in the assay on NCI-H460, in the assay on OVCAR-3, in the assay on SF-295 and with SK-MEL-5 was above 0.01 µg/mL throughout. Also, the TGI in the assay with A498 was above 0.01 µg/mL; with KM20L2 it was 0.0012 µg/mL; in the assay on NCI-H460, 0.0054 µg/mL; with OVCAR-3 it was 0.0011 µg/mL; in the assay with SF-295, above 0.01 µg/mL; in the assay with SK-MEL-5, 0.00074 µg/mL. In addition, the ED-50 in the assay on PS-388 was 0.0000371 µg/mL.
